T1: αvβ3 integrin, P06756
T1 chain 1: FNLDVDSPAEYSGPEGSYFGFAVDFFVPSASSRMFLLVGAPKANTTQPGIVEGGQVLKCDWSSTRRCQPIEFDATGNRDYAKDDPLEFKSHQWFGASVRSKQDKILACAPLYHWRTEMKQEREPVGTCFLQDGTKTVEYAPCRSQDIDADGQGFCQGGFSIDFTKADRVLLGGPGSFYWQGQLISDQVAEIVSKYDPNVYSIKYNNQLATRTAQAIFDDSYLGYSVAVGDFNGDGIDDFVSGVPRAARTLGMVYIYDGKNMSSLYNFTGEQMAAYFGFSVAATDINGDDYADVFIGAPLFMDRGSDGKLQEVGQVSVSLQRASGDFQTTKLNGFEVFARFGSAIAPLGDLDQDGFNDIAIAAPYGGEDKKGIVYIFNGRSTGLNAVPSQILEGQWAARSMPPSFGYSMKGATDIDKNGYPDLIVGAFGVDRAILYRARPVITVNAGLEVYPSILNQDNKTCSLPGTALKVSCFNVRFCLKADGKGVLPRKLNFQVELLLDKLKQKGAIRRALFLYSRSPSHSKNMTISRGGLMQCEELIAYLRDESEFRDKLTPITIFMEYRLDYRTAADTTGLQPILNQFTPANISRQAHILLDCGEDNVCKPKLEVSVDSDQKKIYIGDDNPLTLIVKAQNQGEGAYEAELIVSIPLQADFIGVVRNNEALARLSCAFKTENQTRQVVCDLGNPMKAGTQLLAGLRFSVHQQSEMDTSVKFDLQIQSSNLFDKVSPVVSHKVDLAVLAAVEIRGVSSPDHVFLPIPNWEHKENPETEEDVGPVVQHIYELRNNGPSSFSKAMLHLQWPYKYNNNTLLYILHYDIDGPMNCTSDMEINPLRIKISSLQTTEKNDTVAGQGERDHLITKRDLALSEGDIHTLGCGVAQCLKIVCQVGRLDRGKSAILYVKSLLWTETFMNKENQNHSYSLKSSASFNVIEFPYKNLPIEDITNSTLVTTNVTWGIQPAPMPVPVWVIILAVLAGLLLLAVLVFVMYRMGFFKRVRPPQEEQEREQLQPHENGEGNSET
T1 chain 2: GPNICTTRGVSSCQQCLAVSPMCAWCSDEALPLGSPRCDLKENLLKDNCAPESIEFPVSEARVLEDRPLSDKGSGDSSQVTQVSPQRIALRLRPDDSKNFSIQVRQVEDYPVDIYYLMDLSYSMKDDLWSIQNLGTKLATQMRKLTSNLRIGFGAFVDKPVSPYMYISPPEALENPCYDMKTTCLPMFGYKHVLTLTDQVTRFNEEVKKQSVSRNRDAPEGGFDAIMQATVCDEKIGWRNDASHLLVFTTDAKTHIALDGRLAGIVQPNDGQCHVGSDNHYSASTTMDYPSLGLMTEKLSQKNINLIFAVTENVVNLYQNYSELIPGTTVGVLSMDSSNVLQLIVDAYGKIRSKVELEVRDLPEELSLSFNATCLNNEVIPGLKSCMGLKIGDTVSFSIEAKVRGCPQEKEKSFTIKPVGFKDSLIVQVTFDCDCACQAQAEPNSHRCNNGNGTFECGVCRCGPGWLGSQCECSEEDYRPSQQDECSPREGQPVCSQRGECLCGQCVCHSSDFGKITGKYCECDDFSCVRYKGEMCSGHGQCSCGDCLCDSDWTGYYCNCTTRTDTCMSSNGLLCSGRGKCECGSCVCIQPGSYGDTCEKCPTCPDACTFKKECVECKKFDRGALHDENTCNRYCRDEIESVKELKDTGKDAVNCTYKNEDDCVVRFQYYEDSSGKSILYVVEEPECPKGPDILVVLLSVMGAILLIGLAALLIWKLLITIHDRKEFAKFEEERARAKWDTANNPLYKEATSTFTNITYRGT


Tests used:
αvβ3 integrin = αvβ3 integrin (Homo sapiens, UniProt P05106+P06756); test: Fluorescence polarization; assay type: binding
αvβ3 integrin, P06756 = biological target: T1, αvβ3 integrin, P06756; test: fluorescence polarisation

Ki (αvβ3 integrin, P06756) [nM]	Molecule	Ki (αvβ3 integrin) [nM]	binding to the αvβ3 integrin (in words) (αvβ3 integrin; FP competition experiment, Figure 5 legend)
	CSCC[C@H](NC(=O)[C@H]1CSC[C@H](NC(=O)[C@H](C)NC(=O)[C@H](C)N)C(=O)N[C@@H](Cc2c[nH]cn2)C(=O)N[C@@H](CCCNC(=N)N)C(=O)NCC(=O)N[C@@H](CC(=O)O)C(=O)N2CCC[C@H]2C(=O)N1)C(=O)N1CCC[C@H]1C(=O)N1CCC[C@H]1C(=O)N[C@@H]1CSC[C@@H](C(=O)O)NC(=O)[C@H](CCC(=O)O)NC(=O)CNC(=O)[C@H](CCC(=O)O)NC(=O)[C@H](Cc2c[nH]c3ccccc23)NC(=O)[C@H](Cc2ccc(O)cc2)NC1=O [Pcn2.8(5RGD)]	> 2000	poor binding
18	CHNHAPSMPPSYWRGDC (modifications not checked) [linear/unmodified Pcn2.8(16RGD) core peptide]		
